Laboratory results from patent US10647680B2, “Urea compound, preparation method therefor and medical use thereof” (Ancureall Pharmaceutical (Shanghai) Co., Ltd., priority 2016, dated 2020).
Where “and” joins values, the source holds several entries; their conditions need not be identical. Equal entries are not always repeated.

How the values were obtained:
Type in all cases: in vitro ADME
rat plasma protein = experiment: Binding rate to plasma protein of rats (dialysis method)
Protocol: The binding rate of compound 77 of the present invention to plasma protein at a rat plasma concentration of 2 uM was evaluated by dialysis method.
Procedure: The DMSO stock solution of compound 77 (10 mM) or the positive control propranolol (USP) was added to 500 uL of blank plasma. The final concentration of test substance in the plasma was 2 uM, and the final concentration of the positive control was 1 uM, in triplicate. 300 uL of prepared plasma samples was added to the plasma chamber, and 500 uL of dialysis buffer was added to the buffer chamber (phosphate buffer solution PBS contained 100 mM sodium phosphate and 150 mM sodium chloride, PH 7.2), sealed, and incubated for 4 h while shaking at 100 rpm, 37° C. After incubation, 50 uL sample was taken from the plasma chamber and buffer chamber, and 50 uL of PBS was added to plasma chamber samples, and 50 uL of blank plasma was added to the buffer chamber samples. Immediately, 3-fold methanol solution containing internal standard was added, to precipitate plasma protein. After centrifugation, the supernatant was taken for LC/MS/MS analysis. The plasma protein binding rate was calculated according to the following formula: % free state=(peak area ratio in the buffer chamber/the peak area ratio in the plasma chamber)×%, % binding state=100%−% free state.

CYP2C8 = biological target: T1, CYP2C8 (Homo sapiens, UniProt P10632); experiment: P450 enzyme inhibition, CYP2C8; details: human liver microsomes
T1 construct: human liver microsomes (BD Gentest) (0.5 mg/mL); tissue BD Gentest; host or cells: human liver microsomes
T1 sequence (P10632 1-490): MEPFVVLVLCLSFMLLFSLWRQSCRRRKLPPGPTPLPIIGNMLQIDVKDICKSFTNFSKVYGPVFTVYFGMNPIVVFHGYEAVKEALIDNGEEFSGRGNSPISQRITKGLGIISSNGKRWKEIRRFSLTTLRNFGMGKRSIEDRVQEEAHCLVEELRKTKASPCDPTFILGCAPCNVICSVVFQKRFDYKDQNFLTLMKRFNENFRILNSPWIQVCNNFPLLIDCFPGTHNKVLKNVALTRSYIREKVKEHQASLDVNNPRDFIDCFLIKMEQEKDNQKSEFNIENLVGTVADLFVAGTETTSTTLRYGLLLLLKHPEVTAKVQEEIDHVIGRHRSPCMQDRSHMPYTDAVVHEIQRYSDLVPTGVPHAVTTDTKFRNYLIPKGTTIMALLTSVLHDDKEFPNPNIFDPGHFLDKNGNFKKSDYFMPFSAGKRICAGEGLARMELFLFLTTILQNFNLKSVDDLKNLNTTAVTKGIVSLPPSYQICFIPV
Protocol: (§1) Eight cytochrome p450 enzyme inhibition reactions of human liver microsomes were performed using compound 77 of the present invention as a representative example.
(§2) The main reaction systems and processes: in 37° C. water bath, the test compounds (7 concentrations, 0, 0.25, 0.5, 5, 10, 25, and 50 uM; the final methanol concentration was 1% in the system), human liver microsomes (BD Gentest) (0.5 mg/mL) and reducing coenzyme II (Roche 10621706001) (1 mg/mL) and the corresponding cytochrome p450 enzyme probe substrate were co-incubated for 5 to 20 minutes. Among them, (1) the probe substrate for CYP1A2 was Phenacetin ([…]) (Sigma), and the selective inhibitor alpha-naphthoflavone (2 uM) (Sigma) was for parallel detection as positive control, and they were incubated for 20 minutes. (2) The probe substrate for CYP2b6 was Bupropion (40 uM) (Sigma) and the selective inhibitor Ticlopidine (10 uM) (Sigma) was for parallel detection as positive control, and they were incubated for 20 minutes. (3) The probe substrate of CYP2C8 was Amodiaquine (1 uM) (Sigma), and the selective inhibitor Montelukast (10 uM) (Sigma) was for parallel detection as positive control, and they were incubated for 20 minutes. (4) The probe substrate for CYP2C9 was Diclofenac (2.5 uM) (Sigma), and the selective inhibitor Sulphaphenazole (10 uM) (Sigma) was for parallel detection as positive control, and they were incubated for 20 minutes. (5) The probe substrate for CYP2C19 was Mephenytoin (40 uM) (Sigma), and the selective inhibitor Ticlopidine (10 uM) (Sigma) was for parallel detection as positive control, and they were incubated for 20 minutes. (6) The probe substrate for CYP2D6 was Dextromethorphan (5 uM) (Sigma), and the selective inhibitor Quinidine (10 uM) (Sigma) was for parallel detection as positive control, and they were incubated for 20 minutes. (7) The probe substrates for CYP3A4-T and CYP3A4-M were Testosterone (5 uM) (Sigma) and Midazolam (5 uM) (Sigma), respectively, and the selective inhibitor was Ketoconazole (1 uM) (Sigma), they were detected in parallel as positive control, and incubated for 5 minutes. The reaction system was quenched by adding methanol containing the corresponding internal standard. The internal standard compound was Tolbutamide (Sigma). The concentration of the corresponding metabolites was determined by LC/MS/MS. For the data analysis, the decrease in peak area of the metabolite of the sample after addition of compound 77 relative to the peak area of the metabolite of the solvent control sample was used to calculate the IC50 (concentration of the test substance at 50% inhibition). The percentages of peak areas of metabolites of CYP1A2, CYP2B6, CYP2C8, CYP2C9, 15CYP2C19, CYP2D6, CYP3A4-T, and CYP3A4-M probe substrates after addition of different concentrations of compound 77 and selective inhibitors relative to the solvent control peak areas were shown in the Table 7.

CYP2C19 = biological target: T2, CYP2C19 (Homo sapiens, UniProt P33261); experiment: P450 enzyme inhibition, CYP2C19; details: human liver microsomes
T2 construct: human liver microsomes (BD Gentest) (0.5 mg/mL); tissue BD Gentest; host or cells: human liver microsomes
Protocol: as §1, §2

CYP2D6 = biological target: T3, CYP2D6 (Homo sapiens, UniProt P10635); experiment: P450 enzyme inhibition, CYP2D6; details: human liver microsomes
T3 construct: human liver microsomes (BD Gentest) (0.5 mg/mL); tissue BD Gentest; host or cells: human liver microsomes
Protocol: as §1, §2

CYP3A4-M = biological target: T4, CYP3A4-M (Homo sapiens, UniProt P08684); experiment: P450 enzyme inhibition, CYP3A4-M (Midazolam); details: human liver microsomes
T4 construct: human liver microsomes (BD Gentest) (0.5 mg/mL); tissue BD Gentest; host or cells: human liver microsomes
Protocol: as §1, §2

T2 sequence (P33261 whole entry): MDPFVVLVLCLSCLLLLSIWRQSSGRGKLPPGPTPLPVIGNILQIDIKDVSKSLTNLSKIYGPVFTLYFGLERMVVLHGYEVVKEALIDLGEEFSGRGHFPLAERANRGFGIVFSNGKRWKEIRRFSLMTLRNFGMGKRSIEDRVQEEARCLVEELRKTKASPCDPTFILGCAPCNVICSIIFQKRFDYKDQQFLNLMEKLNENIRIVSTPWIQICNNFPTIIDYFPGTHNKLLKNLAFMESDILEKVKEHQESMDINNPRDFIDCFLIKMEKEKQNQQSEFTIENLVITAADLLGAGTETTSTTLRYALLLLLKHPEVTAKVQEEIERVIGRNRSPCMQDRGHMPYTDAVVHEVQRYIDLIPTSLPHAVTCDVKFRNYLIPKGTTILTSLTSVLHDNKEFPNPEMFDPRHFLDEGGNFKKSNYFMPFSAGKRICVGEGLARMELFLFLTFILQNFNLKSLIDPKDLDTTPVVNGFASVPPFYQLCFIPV
T3 sequence (P10635 whole entry): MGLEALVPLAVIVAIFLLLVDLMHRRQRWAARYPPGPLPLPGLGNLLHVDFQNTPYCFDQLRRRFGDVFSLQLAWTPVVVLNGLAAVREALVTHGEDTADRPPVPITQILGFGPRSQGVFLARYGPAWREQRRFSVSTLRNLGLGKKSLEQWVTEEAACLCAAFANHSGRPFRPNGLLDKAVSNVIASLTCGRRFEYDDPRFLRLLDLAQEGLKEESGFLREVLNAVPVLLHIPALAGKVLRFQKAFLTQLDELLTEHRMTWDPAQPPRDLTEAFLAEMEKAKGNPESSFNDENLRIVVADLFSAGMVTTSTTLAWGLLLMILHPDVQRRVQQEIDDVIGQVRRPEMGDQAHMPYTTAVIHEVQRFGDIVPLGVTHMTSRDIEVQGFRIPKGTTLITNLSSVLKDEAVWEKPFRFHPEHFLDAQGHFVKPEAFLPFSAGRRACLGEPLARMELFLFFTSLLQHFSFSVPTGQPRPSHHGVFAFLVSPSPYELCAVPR
T4 sequence (P08684 whole entry): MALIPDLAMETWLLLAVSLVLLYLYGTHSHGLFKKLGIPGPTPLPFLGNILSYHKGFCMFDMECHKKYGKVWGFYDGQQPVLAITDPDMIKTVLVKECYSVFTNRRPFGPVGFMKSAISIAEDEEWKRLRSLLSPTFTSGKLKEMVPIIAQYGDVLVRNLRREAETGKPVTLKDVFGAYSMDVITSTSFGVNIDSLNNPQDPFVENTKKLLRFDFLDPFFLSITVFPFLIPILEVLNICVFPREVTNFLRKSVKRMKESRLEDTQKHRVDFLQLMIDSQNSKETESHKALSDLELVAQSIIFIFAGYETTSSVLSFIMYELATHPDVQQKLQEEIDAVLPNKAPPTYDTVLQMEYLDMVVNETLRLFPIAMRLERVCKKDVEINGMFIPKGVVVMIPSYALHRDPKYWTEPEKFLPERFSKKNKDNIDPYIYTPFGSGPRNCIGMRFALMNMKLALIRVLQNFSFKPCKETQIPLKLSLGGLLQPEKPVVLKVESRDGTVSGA

COCCOc1ccc2c(c1)ncn2-c1ccc(NC(=O)Nc2cc(C(C)(C)C)n[nH]2)cc1 [Compound 77, 1-(5-tert-butyl-2H-pyrazol-3-yl)-3-{4-[5-(2-methoxyl-ethoxyl)-benzimidazol-1-yl]-phenyl}-urea]
Mean Binding Rate (rat plasma protein; Rats, concentration 2 uM): 99.54%
Binding Rate (rat plasma protein; Rats, concentration 2 uM, single replicates): 99.46% and 99.58% and 99.60%
binding rate to the rat plasma protein (rat plasma protein; dialysis, 4 h, 37° C., test substance 2 uM, positive control 1 uM): 99.54%
CYP2C8 Remaining % (CYP2C8; Concentration 0.25 uM): 99.2%
CYP2C8 Remaining % (CYP2C8; Concentration 0.5 uM): 103.5%
CYP2C8 Remaining % (CYP2C8; Concentration 5 uM): 90.7%
CYP2C8 Remaining % (CYP2C8; Concentration 10 uM): 88.5%
CYP2C8 Remaining % (CYP2C8; Concentration 25 uM): 81.7%
CYP2C8 Remaining % (CYP2C8; Concentration 50 uM): 49.1%
IC50 (CYP2C8): ≥ 50 µM
CYP2C19 Remaining % (CYP2C19; Concentration 0.25 uM): 104.2%
CYP2C19 Remaining % (CYP2C19; Concentration 0.5 uM): 100.8%
CYP2C19 Remaining % (CYP2C19; Concentration 5 uM): 106.9%
CYP2C19 Remaining % (CYP2C19; Concentration 10 uM): 102.9%
CYP2C19 Remaining % (CYP2C19; Concentration 25 uM): 91.3%
CYP2C19 Remaining % (CYP2C19; Concentration 50 uM): 67.6%
IC50 (CYP2C19; read-out: half-inhibitory concentration (IC50) of CYP2C19): > 50 µM
CYP2D6 Remaining % (CYP2D6; Concentration 0.25 uM): 105.1%
CYP2D6 Remaining % (CYP2D6; Concentration 0.5 uM): 97.7%
CYP2D6 Remaining % (CYP2D6; Concentration 5 uM): 98.8%
CYP2D6 Remaining % (CYP2D6; Concentration 10 uM): 96.3%
CYP2D6 Remaining % (CYP2D6; Concentration 25 uM): 90.3%
CYP2D6 Remaining % (CYP2D6; Concentration 50 uM): 64.9%
IC50 (CYP2D6; read-out: half-inhibitory concentration (IC50) of CYP2D6): > 50 µM
CYP3A4M Remaining % (CYP3A4-M; Concentration 0.25 uM): 105.7%
CYP3A4M Remaining % (CYP3A4-M; Concentration 0.5 uM): 105.7%
CYP3A4M Remaining % (CYP3A4-M; Concentration 5 uM): 105.0%
CYP3A4M Remaining % (CYP3A4-M; Concentration 10 uM): 97.3%
CYP3A4M Remaining % (CYP3A4-M; Concentration 25 uM): 97.2%
CYP3A4M Remaining % (CYP3A4-M; Concentration 50 uM): 84.0%
inhibitory effect on CYP3A4-M (CYP3A4-M; Concentration 50 uM): no significant inhibitory effect
